Experimental data from publication PMC11859264, “Discovery of a Novel Multitarget Analgesic Through an In Vivo-Guided Approach” (Pharmaceuticals, 2025).

Legend:
Serotonin 5-HT2A = Serotonin 5-HT2A (Homo sapiens, UniProt P28223); experiment: Radioligand binding, [3H] Ketanserin, Eurofins; conditions: Serotonin 5-HT2A
[1] = target: T1, Transporter, Dopamine (DAT) (Homo sapiens, UniProt Q01959); experiment: Radioligand binding, [125I] RTI-55, Eurofins; conditions: DAT
T1 construct: host or cells: CHO-S cells
T1 sequence (Q01959 whole entry): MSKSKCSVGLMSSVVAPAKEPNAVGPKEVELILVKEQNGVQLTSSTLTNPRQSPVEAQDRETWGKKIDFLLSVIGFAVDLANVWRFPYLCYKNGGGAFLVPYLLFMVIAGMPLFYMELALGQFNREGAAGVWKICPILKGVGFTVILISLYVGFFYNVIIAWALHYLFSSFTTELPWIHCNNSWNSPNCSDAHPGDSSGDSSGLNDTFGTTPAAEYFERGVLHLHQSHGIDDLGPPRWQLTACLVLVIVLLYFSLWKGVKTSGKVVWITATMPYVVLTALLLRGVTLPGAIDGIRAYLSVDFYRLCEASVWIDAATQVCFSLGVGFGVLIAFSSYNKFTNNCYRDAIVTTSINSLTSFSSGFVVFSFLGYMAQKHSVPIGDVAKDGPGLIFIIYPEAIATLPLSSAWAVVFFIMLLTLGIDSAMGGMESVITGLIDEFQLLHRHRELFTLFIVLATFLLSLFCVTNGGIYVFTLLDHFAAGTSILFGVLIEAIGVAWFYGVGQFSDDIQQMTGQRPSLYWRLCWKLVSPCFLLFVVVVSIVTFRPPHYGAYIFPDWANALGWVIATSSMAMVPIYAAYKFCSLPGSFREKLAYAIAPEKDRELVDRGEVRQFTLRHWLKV

Adrenergic α2A = target: T2, Adrenergic α2A (Homo sapiens, UniProt P08913); experiment: Radioligand binding, [3H] Rauwolscine, Eurofins; conditions: Adrenergic α2A
T2 sequence (P08913 1-465): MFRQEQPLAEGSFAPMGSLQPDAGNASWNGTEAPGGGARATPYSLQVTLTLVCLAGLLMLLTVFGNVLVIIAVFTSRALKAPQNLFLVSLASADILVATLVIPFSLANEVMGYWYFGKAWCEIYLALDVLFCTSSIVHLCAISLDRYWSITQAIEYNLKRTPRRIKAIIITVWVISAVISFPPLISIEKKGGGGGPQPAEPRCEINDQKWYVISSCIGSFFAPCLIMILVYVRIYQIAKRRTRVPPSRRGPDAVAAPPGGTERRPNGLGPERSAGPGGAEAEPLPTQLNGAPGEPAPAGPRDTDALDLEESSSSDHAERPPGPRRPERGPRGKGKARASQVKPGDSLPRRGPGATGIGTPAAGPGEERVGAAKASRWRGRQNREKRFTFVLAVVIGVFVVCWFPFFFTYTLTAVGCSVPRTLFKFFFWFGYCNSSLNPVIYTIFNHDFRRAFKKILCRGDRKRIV

formalin model = experiment: Formalin test in mice (primary in vivo screening and ED50); parameters: species or system ICR male mice; conditions: mice, second phase; for % Inhibition in the second phase of the formalin model relative to vehicle control: 5 mg/kg intraperitoneal
Procedure: For primary screening, the synthesized compounds were administered to mice via intraperitoneal injection at a dose of 5 mg/kg using the formalin model. The percentage inhibition in the second phase, relative to the vehicle control (DMSO/cremophor EL/distilled water = 10:10:80), was calculated.
Each compound was assessed using four doses (0.1, 1, 5, and 10 mg/kg) by intraperitoneal injection.
ICR male mice weighing 23–25 g was purchased from Samtako Korea (Osan, Republic of Korea). ICR mice were housed four per cage in a room with 12 h light–dark cycles. The temperature and relative humidity of the room were maintained at 22 ± 2 °C and 50 ± 5%, respectively. Food and water were available ad libitum. The procedures for animal testing were approved by Medifron Animal Care and Use Committees (Approval number; Medifron 2019-9). Efforts were made to minimize animal suffering and to reduce the number of animals used.
Mice were randomly assigned to five groups (four per group) and single-dose drugs were administered by intraperitoneal injection. The formalin-induced licking paw test was modified from the method described by Dubuisson and Dennis. Each mouse was acclimated to an acrylic observation chamber for at least 30 min before the injection of formalin. Twenty microliters of 2% formalin were injected subcutaneously into the right side of the hind paw. Each mouse was then placed in an individual clear plastic observational chamber (15 × 15 × 15 cm, volume = […] or 3.375 L), and the pain response was recorded for a period of 30 min. The summation of time (in seconds) spent in licking and biting responses of the injected paw during each 5 min block was measured as an indicator of the pain response. The first period (early phase) was recorded 0–5 min after the injection of formalin, and the second period (late phase) was recorded 20–30 min after the injection. The test compound was administered intraperitoneally 30 min before the formalin injection at […]: 0.1, 1, 5, and 10 mg/kg. The vehicle was DMSO/Cremophor EL/distilled water (10/10/80). The data were expressed as the mean ± standard error of the mean (SEM). Statistical analysis was assessed by one-way analysis of variance (ANOVA) with Bonferroni’s post hoc test. Statistical significance was set at p-value < 0.05, with values of p <0.001 considered highly significant.

CYP3A4 = CYP3A4 (Homo sapiens, UniProt P08684); experiment: Cytochrome P450 (CYP) inhibition assay; conditions: microsomes, pH 7.4
Chain of CYP3A4 (P08684 whole entry): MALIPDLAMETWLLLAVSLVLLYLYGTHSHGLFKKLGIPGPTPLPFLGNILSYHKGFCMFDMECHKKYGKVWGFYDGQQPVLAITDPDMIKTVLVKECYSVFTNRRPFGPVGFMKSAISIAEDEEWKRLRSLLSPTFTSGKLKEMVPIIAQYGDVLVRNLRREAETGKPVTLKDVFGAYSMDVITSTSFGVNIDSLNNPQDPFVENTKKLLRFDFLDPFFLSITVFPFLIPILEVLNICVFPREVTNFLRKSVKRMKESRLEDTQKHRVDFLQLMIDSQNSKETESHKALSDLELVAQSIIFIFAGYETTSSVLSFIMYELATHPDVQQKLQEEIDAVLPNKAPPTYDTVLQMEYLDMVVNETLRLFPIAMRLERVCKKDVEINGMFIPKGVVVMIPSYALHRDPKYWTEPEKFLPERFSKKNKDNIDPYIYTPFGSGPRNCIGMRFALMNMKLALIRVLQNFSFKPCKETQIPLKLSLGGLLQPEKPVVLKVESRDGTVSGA

CYP2C9 = CYP2C9 (Homo sapiens, UniProt P11712); experiment: Cytochrome P450 (CYP) inhibition assay; conditions: microsomes, pH 7.4
Chain of CYP2C9 (P11712 whole entry): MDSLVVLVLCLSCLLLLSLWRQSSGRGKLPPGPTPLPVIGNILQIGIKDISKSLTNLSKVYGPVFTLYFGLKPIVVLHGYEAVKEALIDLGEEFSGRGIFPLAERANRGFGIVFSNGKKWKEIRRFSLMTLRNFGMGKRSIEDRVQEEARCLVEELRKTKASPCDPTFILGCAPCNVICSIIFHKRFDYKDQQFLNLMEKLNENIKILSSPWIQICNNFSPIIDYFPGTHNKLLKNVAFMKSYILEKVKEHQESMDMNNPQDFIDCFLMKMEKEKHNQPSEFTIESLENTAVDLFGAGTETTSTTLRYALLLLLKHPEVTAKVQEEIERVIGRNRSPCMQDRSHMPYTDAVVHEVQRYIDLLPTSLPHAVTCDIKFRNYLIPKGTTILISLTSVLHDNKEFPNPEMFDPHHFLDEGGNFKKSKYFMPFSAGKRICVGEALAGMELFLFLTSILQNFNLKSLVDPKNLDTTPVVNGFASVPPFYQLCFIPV

CYP2C19 = CYP2C19 (Homo sapiens, UniProt P33261); experiment: Cytochrome P450 (CYP) inhibition assay; conditions: microsomes, pH 7.4
Chain of CYP2C19 (P33261 whole entry): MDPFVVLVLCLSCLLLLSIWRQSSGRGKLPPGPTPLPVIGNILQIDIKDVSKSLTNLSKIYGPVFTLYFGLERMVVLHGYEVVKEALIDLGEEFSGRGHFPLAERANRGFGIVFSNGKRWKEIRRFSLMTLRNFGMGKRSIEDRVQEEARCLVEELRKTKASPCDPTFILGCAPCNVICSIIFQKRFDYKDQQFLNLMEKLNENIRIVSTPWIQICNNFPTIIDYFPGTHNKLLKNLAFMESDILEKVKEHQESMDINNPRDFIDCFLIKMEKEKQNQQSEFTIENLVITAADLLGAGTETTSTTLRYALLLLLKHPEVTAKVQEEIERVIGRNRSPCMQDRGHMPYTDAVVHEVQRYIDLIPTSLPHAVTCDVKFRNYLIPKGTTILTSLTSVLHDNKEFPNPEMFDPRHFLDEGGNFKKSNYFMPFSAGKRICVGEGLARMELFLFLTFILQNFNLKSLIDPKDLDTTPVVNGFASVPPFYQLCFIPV

Dopamine D2L = target: T3, Dopamine D2L (Homo sapiens, UniProt P14416); experiment: Radioligand binding, [3H] Spiperone, Eurofins; conditions: Dopamine D2L
T3 construct: host or cells: CHO cells
T3 sequence (P14416 whole entry): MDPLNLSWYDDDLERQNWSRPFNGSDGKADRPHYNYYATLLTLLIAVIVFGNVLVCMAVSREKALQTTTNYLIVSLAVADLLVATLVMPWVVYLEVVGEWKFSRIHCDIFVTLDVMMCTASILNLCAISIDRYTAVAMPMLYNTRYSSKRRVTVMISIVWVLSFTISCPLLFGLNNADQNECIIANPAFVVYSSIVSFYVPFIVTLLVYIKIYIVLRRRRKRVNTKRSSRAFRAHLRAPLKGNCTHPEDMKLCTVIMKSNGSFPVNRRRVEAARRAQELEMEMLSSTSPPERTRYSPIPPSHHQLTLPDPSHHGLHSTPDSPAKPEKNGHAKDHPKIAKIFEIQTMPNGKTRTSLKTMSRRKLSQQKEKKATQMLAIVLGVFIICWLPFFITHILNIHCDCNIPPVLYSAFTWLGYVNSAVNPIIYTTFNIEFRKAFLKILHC

Chain of Serotonin 5-HT2A (P28223 whole entry): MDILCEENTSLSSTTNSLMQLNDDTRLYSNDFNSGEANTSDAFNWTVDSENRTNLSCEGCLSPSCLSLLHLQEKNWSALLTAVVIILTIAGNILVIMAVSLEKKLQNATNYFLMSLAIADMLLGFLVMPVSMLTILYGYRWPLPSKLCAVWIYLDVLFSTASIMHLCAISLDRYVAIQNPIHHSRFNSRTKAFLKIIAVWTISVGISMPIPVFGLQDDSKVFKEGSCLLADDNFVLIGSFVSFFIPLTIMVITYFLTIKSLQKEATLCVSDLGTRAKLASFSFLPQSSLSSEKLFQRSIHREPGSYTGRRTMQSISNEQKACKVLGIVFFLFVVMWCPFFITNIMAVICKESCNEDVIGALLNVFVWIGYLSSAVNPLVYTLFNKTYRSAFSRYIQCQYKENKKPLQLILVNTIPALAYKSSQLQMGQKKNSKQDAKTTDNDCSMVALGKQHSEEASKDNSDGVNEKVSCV

With `O=C(c1ccc(F)cc1)C1CCN(CCn2c(=O)[nH]c3ccccc3c2=O)CC1` [Ketanserin, reference compound] the “nH (Hill coefficient)” value (Serotonin 5-HT2A) was 0.99.

`Fc1ccc(C(OCCN2CCN(CCCc3ccccc3)CC2)c2ccc(F)cc2)cc1` [Vanoxerine, reference compound] was tested, and the “nH (Hill coefficient)” value [1] was 1.01.

With `COC(=O)[C@@H]1[C@H]2C[C@H]3c4[nH]c5ccccc5c4CCN3C[C@@H]2CC[C@@H]1O` [Yohimbine, reference compound] the “nH (Hill coefficient)” value (Adrenergic α2A) was 0.88.

For `N#Cc1ccc2[nH]cc(C(=O)NCCN3CCN(C(=O)c4ccc(F)cc4)CC3)c2c1` [Compound 33, 5-Cyano-N-(2-(4-(4-fluorobenzoyl)piperazin-1-yl)ethyl)-1H-indole-3-carboxamide], the “% Inhibition in the second phase of the formalin model relative to vehicle control” value (formalin model) was 24.2%.

`N#Cc1ccc2[nH]cc(C(=O)NCCCN3CCN(c4cccc(Cl)c4)CC3)c2c1` [Compound 37, N-(3-(4-(3-Chlorophenyl)piperazin-1-yl)propyl)-5-cyano-1H-indole-3-carboxamide] gave an ED50 (formalin model; Mus musculus, ip, intraperitoneal, doses 0.1, 1, 5 and 10 mg/kg, read-out: ED50 in the second phase of the formalin model) of 3.2 mg/kg.

For `N#Cc1ccc2[nH]cc(C(=O)NCCCN3CCN(C(=O)c4cccc(C(F)(F)F)c4)CC3)c2c1` [Compound 50, 5-Cyano-N-(3-(4-(3-(trifluoromethyl)benzoyl)piperazin-1-yl)propyl)-1H-indole-3-carboxamide], the “% Inhibition in the second phase of the formalin model relative to vehicle control” value (formalin model) was 2.9%.

With `CC(=O)N1CCN(c2ccc(OCC3COC(Cn4ccnc4)(c4ccc(Cl)cc4Cl)O3)cc2)CC1` (stereo not drawn) [Ketoconazole] the inhibition at 15 min, 0.1 µM (CYP3A4) was 68%, the inhibition at 15 min, 0.1 µM (CYP2C9) was 3.2% and the inhibition at 15 min, 0.1 µM (CYP2C19) was 0%.

`N#Cc1ccc2[nH]cc(C(=O)NCCN3CCN(c4ncccc4Cl)CC3)c2c1` [Compound 27, N-(2-(4-(3-Chloropyridin-2-yl)piperazin-1-yl)ethyl)-5-cyano-1H-indole-3-carboxamide] was tested, and the “% Inhibition in the second phase of the formalin model relative to vehicle control” value (formalin model) was 48.0%.

In the case of `N#Cc1ccc2[nH]cc(C(=O)NCCN3CCN(c4ccc(F)cc4)CC3)c2c1` [Compound 23, 5-Cyano-N-(2-(4-(4-fluorophenyl)piperazin-1-yl)ethyl)-1H-indole-3-carboxamide], the “% Inhibition in the second phase of the formalin model relative to vehicle control” value (formalin model) is reported as 35.8%.

`O=C(CCCN1CCC2(CC1)C(=O)NCN2c1ccccc1)c1ccc(F)cc1` [Spiperone, reference compound] was tested, and the “nH (Hill coefficient)” value (Dopamine D2L) was 0.71.
